Measurements from PubChem BioAssay (NCI).
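The concentration for 50% growth inhibition is given as GI50. TGI denotes the concentration required for complete inhibition of growth.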

Assays:
Assay in all cases: NCI-60 cell line screen, 384-well format; in the data active means GI50 below about 0.43 µM; inactive means the rest
786-0 renal = system: 786-0 renal
A498 renal = system: A498 renal
A549 NSCLC = system: A549 NSCLC
ACHN renal = system: ACHN renal
BT-549 breast = system: BT-549 breast
CAKI-1 renal = system: CAKI-1 renal
CCRF-CEM leukemia = system: CCRF-CEM leukemia
COLO 205 colon = system: COLO 205 colon
DU-145 prostate = system: DU-145 prostate
EKVX NSCLC = system: EKVX NSCLC
HCC-2998 colon = system: HCC-2998 colon
HCT-15 colon = system: HCT-15 colon
HL-60(TB) leukemia = system: HL-60(TB) leukemia
HOP-62 NSCLC = system: HOP-62 NSCLC
HOP-92 NSCLC = system: HOP-92 NSCLC
HS 578T breast = system: HS 578T breast
HT29 colon = system: HT29 colon
IGROV1 ovarian = system: IGROV1 ovarian
KM12 colon = system: KM12 colon
M14 melanoma = system: M14 melanoma
MALME-3M melanoma = system: MALME-3M melanoma
MCF7 breast = system: MCF7 breast
MDA-MB-231 breast = system: MDA-MB-231 breast
MDA-MB-435 melanoma = system: MDA-MB-435 melanoma
MDA-MB-468 breast = system: MDA-MB-468 breast
MOLT-4 leukemia = system: MOLT-4 leukemia
NCI-H226 lung = system: NCI-H226 lung
NCI-H23 lung = system: NCI-H23 lung
NCI-H322M lung = system: NCI-H322M lung
NCI-H460 NSCLC = system: NCI-H460 NSCLC
NCI-H522 lung = system: NCI-H522 lung
NCI/ADR-RES ovarian = system: NCI/ADR-RES ovarian
OVCAR-3 ovarian = system: OVCAR-3 ovarian
OVCAR-4 ovarian = system: OVCAR-4 ovarian
OVCAR-5 ovarian = system: OVCAR-5 ovarian
OVCAR-8 ovarian = system: OVCAR-8 ovarian
PC-3 prostate = system: PC-3 prostate
RPMI-8226 leukemia = system: RPMI-8226 leukemia
RXF 393 renal = system: RXF 393 renal
SF-268 CNS = system: SF-268 CNS
SF-295 CNS = system: SF-295 CNS
SF-539 CNS = system: SF-539 CNS
SK-MEL-2 melanoma = system: SK-MEL-2 melanoma
SK-MEL-28 melanoma = system: SK-MEL-28 melanoma
SK-MEL-5 melanoma = system: SK-MEL-5 melanoma
SK-OV-3 ovarian = system: SK-OV-3 ovarian
SN12C renal = system: SN12C renal
SNB-19 CNS = system: SNB-19 CNS
SNB-75 CNS = system: SNB-75 CNS
SR leukemia = system: SR leukemia
SW-620 colon = system: SW-620 colon
T-47D breast = system: T-47D breast
TK-10 renal = system: TK-10 renal
U251 glioblastoma = system: U251 glioblastoma
UACC-257 melanoma = system: UACC-257 melanoma
UACC-62 melanoma = system: UACC-62 melanoma

Nc1nc(F)nc2c1ncn2C1OC(CO)C(O)C1O (configuration not stated)
73.7 µM: TGI (A498 renal)
44.1 µM: TGI (SK-OV-3 ovarian)
43.4 µM: TGI (SK-MEL-5 melanoma)
50.3 µM: TGI (CAKI-1 renal)
3.75 µM: TGI (HL-60(TB) leukemia)
37.3 µM: TGI (COLO 205 colon)
56 µM: TGI (786-0 renal)
35.8 µM: TGI (NCI-H460 NSCLC)
21 µM: TGI (HOP-62 NSCLC)
46.1 µM: TGI (BT-549 breast)
57.5 µM: TGI (DU-145 prostate)
8.62 µM: TGI (M14 melanoma)
24.6 µM: TGI (SN12C renal)
96.8 µM: TGI (UACC-62 melanoma)
16.6 µM: TGI (SK-MEL-2 melanoma)
54.7 µM: TGI (SF-268 CNS)
inactive: GI50 (786-0 renal) 17.8 µM | GI50 (A498 renal) 19.4 µM | GI50 (A549 NSCLC) 29.8 µM | GI50 (ACHN renal) 21.7 µM | GI50 (BT-549 breast) 12 µM | GI50 (CAKI-1 renal) 17.4 µM | GI50 (COLO 205 colon) 11 µM | GI50 (DU-145 prostate) 15.5 µM | GI50 (EKVX NSCLC) > 100 µM | GI50 (HCC-2998 colon) 2.11 µM | GI50 (HCT-15 colon) 32.2 µM | GI50 (HL-60(TB) leukemia) 2.12 µM | GI50 (HOP-62 NSCLC) 5.5 µM | GI50 (HOP-92 NSCLC) 7.81 µM | GI50 (HS 578T breast) 30.6 µM | GI50 (HT29 colon) 81.4 µM | GI50 (IGROV1 ovarian) 44.8 µM | GI50 (KM12 colon) 26.4 µM | GI50 (M14 melanoma) 2.6 µM | GI50 (MALME-3M melanoma) 1.81 µM | GI50 (MCF7 breast) 26.6 µM | GI50 (MDA-MB-231 breast) 6.96 µM | GI50 (MDA-MB-435 melanoma) 12.4 µM | GI50 (MDA-MB-468 breast) 26.5 µM | GI50 (MOLT-4 leukemia) 1.15 µM | GI50 (NCI-H226 lung) 95.9 µM | GI50 (NCI-H23 lung) 3.55 µM | GI50 (NCI-H322M lung) > 100 µM | GI50 (NCI-H460 NSCLC) 16.5 µM | GI50 (NCI-H522 lung) 4.68 µM | GI50 (NCI/ADR-RES ovarian) 2.34 µM | GI50 (OVCAR-3 ovarian) 7.9 µM | GI50 (OVCAR-4 ovarian) > 100 µM | GI50 (OVCAR-5 ovarian) 34.2 µM | GI50 (OVCAR-8 ovarian) 1.98 µM | GI50 (PC-3 prostate) 10.8 µM | GI50 (RPMI-8226 leukemia) 45.1 µM | GI50 (RXF 393 renal) 44.2 µM | GI50 (SF-268 CNS) 19.8 µM | GI50 (SF-295 CNS) 76.2 µM | GI50 (SF-539 CNS) 59 µM | GI50 (SK-MEL-2 melanoma) 4.7 µM | GI50 (SK-MEL-28 melanoma) 3.11 µM | GI50 (SK-MEL-5 melanoma) 14.1 µM | GI50 (SK-OV-3 ovarian) 10.1 µM | GI50 (SN12C renal) 6.16 µM | GI50 (SNB-19 CNS) 7.28 µM | GI50 (SNB-75 CNS) 23.1 µM | GI50 (SR leukemia) > 100 µM | GI50 (SW-620 colon) 49.8 µM | GI50 (T-47D breast) 34.9 µM | GI50 (TK-10 renal) > 100 µM | GI50 (U251 glioblastoma) 36.7 µM | GI50 (UACC-257 melanoma) 50.8 µM | GI50 (UACC-62 melanoma) 28.8 µM
47.9 µM: TGI (MDA-MB-231 breast)
82.8 µM: TGI (MDA-MB-468 breast)
56.8 µM: TGI (HOP-92 NSCLC)
8.06 µM: TGI (MALME-3M melanoma)
> 100 µM: TGI (A549 NSCLC) | TGI (EKVX NSCLC) | TGI (HCT-15 colon) | TGI (HS 578T breast) | TGI (HT29 colon) | TGI (IGROV1 ovarian) | TGI (KM12 colon) | TGI (MCF7 breast) | TGI (MDA-MB-435 melanoma) | TGI (NCI-H226 lung) | TGI (NCI-H322M lung) | TGI (OVCAR-3 ovarian) | TGI (OVCAR-4 ovarian) | TGI (OVCAR-5 ovarian) | TGI (PC-3 prostate) | TGI (RPMI-8226 leukemia) | TGI (RXF 393 renal) | TGI (SF-295 CNS) | TGI (SF-539 CNS) | TGI (SNB-75 CNS) | TGI (SR leukemia) | TGI (SW-620 colon) | TGI (T-47D breast) | TGI (TK-10 renal) | TGI (U251 glioblastoma) | TGI (UACC-257 melanoma)
48.5 µM: TGI (ACHN renal)
42.8 µM: TGI (SNB-19 CNS)
15.2 µM: TGI (SK-MEL-28 melanoma)
4.61 µM: TGI (OVCAR-8 ovarian)
6.41 µM: TGI (NCI/ADR-RES ovarian)
active: GI50 (CCRF-CEM leukemia) 0.316 µM
2.37 µM: TGI (MOLT-4 leukemia)
15.7 µM: TGI (NCI-H23 lung)
8.44 µM: TGI (HCC-2998 colon)
1.23 µM: TGI (CCRF-CEM leukemia)
36.9 µM: TGI (NCI-H522 lung)
